Reference: ChEMBL document CHEMBL3856212, “Synthesis, anti-proliferative and genotoxicity studies of 6-chloro-5-(2-substituted-ethyl)-1,3-dihydro-2H-indol-2-ones and 6-chloro-5-(2-chloroethyl)-3-(alkyl/ary-2-ylidene)indolin-2-ones” (Eur J Med Chem, 2016)

Tests used:
[1] = Cytotoxicity against human MOLT4 cells assessed as growth inhibition after 48 hrs by SRB assay; format: functional; conditions: MOLT-4, 48 h
[2] = Cytotoxicity against human EKVX cells assessed as growth inhibition after 48 hrs by SRB assay; format: functional
[3] = Cytotoxicity against human HCT15 cells assessed as growth inhibition after 48 hrs by SRB assay; format: functional; conditions: HCT-15, 48 h
[4] = Cytotoxicity against human SW620 cells assessed as growth inhibition after 48 hrs by SRB assay; format: functional; conditions: SW-620, 48 h
[5] = Cytotoxicity against human SF268 cells assessed as growth inhibition after 48 hrs by SRB assay; format: functional; conditions: SF-268, 48 h
[6] = Cytotoxicity against human SNB19 cells assessed as growth inhibition after 48 hrs by SRB assay; format: functional; conditions: SNB-19, 48 h
[7] = Cytotoxicity against human LOXIMVI cells assessed as growth inhibition after 48 hrs by SRB assay; format: functional; conditions: LOX IMVI
[8] = Cytotoxicity against human M14 cells assessed as growth inhibition after 48 hrs by SRB assay; format: functional; conditions: M14, 48 h
[9] = Cytotoxicity against human MDA-MB-435 cells assessed as growth inhibition after 48 hrs by SRB assay; format: functional; conditions: MDA-MB-435, 48 h
[10] = Cytotoxicity against human UACC257 cells assessed as growth inhibition after 48 hrs by SRB assay; format: functional; conditions: UACC-257, 48 h
[11] = Cytotoxicity against human OVCAR5 cells assessed as growth inhibition after 48 hrs by SRB assay; format: functional; conditions: OVCAR-5, 48 h
[12] = Cytotoxicity against human OVCAR8 cells assessed as growth inhibition after 48 hrs by SRB assay; format: functional; conditions: OVCAR-8, 48 h
[13] = Cytotoxicity against human SKOV3 cells assessed as growth inhibition after 48 hrs by SRB assay; format: functional; conditions: SK-OV-3, 48 h
[14] = Cytotoxicity against human 786-0 cells assessed as growth inhibition after 48 hrs by SRB assay; format: functional; conditions: 786-0, 48 h
[15] = Cytotoxicity against human PC3 cells assessed as growth inhibition after 48 hrs by SRB assay; format: functional; conditions: PC-3, 48 h
[16] = Cytotoxicity against human DU145 cells assessed as growth inhibition after 48 hrs by SRB assay; format: functional; conditions: DU-145, 48 h
[17] = Cytotoxicity against human Hs 578T cells assessed as growth inhibition after 48 hrs by SRB assay; format: functional
[18] = Cytotoxicity against human T47D cells assessed as growth inhibition after 48 hrs by SRB assay; format: functional
[19] = Cytotoxicity against human EKVX cells assessed as assessed as growth inhibition at 10^-5 M after 48 hrs by SRB assay relative to control; format: functional; conditions: read-out: GI
[20] = Cytotoxicity against human NCI-H460 cells assessed as assessed as growth inhibition at 10^-5 M after 48 hrs by SRB assay relative to control; format: functional; conditions: NCI-H460, 48 h, read-out: GI
[21] = Cytotoxicity against human HT-29 cells assessed as assessed as growth inhibition at 10^-5 M after 48 hrs by SRB assay relative to control; format: functional; conditions: HT-29, 48 h, read-out: GI
[22] = Cytotoxicity against human SF268 cells assessed as assessed as growth inhibition at 10^-5 M after 48 hrs by SRB assay relative to control; format: functional; conditions: SF-268, 48 h, read-out: GI
[23] = Cytotoxicity against human SNB19 cells assessed as assessed as growth inhibition at 10^-5 M after 48 hrs by SRB assay relative to control; format: functional; conditions: SNB-19, 48 h, read-out: GI
[24] = Cytotoxicity against human MDA-MB-435 cells assessed as assessed as growth inhibition at 10^-5 M after 48 hrs by SRB assay relative to control; format: functional; conditions: MDA-MB-435, 48 h, read-out: GI
[25] = Cytotoxicity against human UACC62 cells assessed as assessed as growth inhibition at 10^-5 M after 48 hrs by SRB assay relative to control; format: functional; conditions: UACC-62, 48 h, read-out: GI
[26] = Cytotoxicity against human RXF393 cells assessed as assessed as growth inhibition at 10^-5 M after 48 hrs by SRB assay relative to control; format: functional; conditions: RXF 393, 48 h, read-out: GI
[27] = Cytotoxicity against human MCF7 cells assessed as assessed as growth inhibition at 10^-5 M after 48 hrs by SRB assay relative to control; format: functional; conditions: MCF7, 48 h, read-out: GI
[28] = Cytotoxicity against human MDA-MB-231 cells assessed as assessed as growth inhibition at 10^-5 M after 48 hrs by SRB assay relative to control; format: functional; conditions: MDA-MB-231, 48 h, read-out: GI
[29] = Cytotoxicity against human T47D cells assessed as assessed as growth inhibition at 10^-5 M after 48 hrs by SRB assay relative to control; format: functional; conditions: read-out: GI
[30] = Cytotoxicity against human MDA-MB-468 cells assessed as assessed as growth inhibition at 10^-5 M after 48 hrs by SRB assay relative to control; format: functional; conditions: MDA-MB-468, 48 h, read-out: GI
[31] = species: Mus musculus; experiment: Genotoxicity in mouse EAC cells at 500 uM after 24 hrs by micronucleus assay (reference value: 3.5 +/- 0.30%); format: toxicity, cell-based; conditions: ehrlich
[32] = Induction of apoptosis in mouse EAC cells at 250 uM after 24 hrs by acridine orange dye-based fluorescence microscopy (reference value: 0.66 +/- 0.33%); format: cell-based; conditions: ehrlich
[33] = Induction of apoptosis in mouse EAC cells at 375 uM after 24 hrs by acridine orange dye-based fluorescence microscopy (reference value: 0.66 +/- 0.33%); format: cell-based; conditions: ehrlich
[34] = Induction of apoptosis in mouse EAC cells at 500 uM after 24 hrs by acridine orange dye-based fluorescence microscopy (reference value: 0.66 +/- 0.33%); format: cell-based; conditions: ehrlich
[35] = read-out: LD50 (the source's name)

## O=C1Cc2cc(CCn3cncn3)c(Cl)cc2N1
[1]
  GI50: 1000 nM
  TGI: > 1000 nM
[1]; [35]
  CC50: > 1000 nM
[2]
  GI50: 8250 nM
  TGI: > 1000 nM
[2]; [35]
  CC50: > 1000 nM
[3]
  GI50: 9590 nM
  TGI: > 1000 nM
[3]; [35]
  CC50: > 1000 nM
[4]
  GI50: 6600 nM
  TGI: > 1000 nM
[4]; [35]
  CC50: > 1000 nM
[5]
  GI50: 5960 nM
  TGI: > 1000 nM
[5]; [35]
  CC50: > 1000 nM
[6]
  GI50: 7070 nM
  TGI: > 1000 nM
[6]; [35]
  CC50: > 1000 nM
[7]
  GI50: 1000 nM
  TGI: > 1000 nM
[7]; [35]
  CC50: > 1000 nM
[8]
  GI50: 3960 nM
  TGI: > 1000 nM
[8]; [35]
  CC50: > 1000 nM
[9]
  GI50: 3220 nM
  TGI: > 1000 nM
[9]; [35]
  CC50: > 1000 nM
[10]
  GI50: 7140 nM
  TGI: > 1000 nM
[10]; [35]
  CC50: > 1000 nM
[11]
  GI50: 1000 nM
  TGI: > 1000 nM
[11]; [35]
  CC50: > 1000 nM
[12]
  GI50: 6940 nM
  TGI: > 1000 nM
[12]; [35]
  CC50: > 1000 nM
[13]
  GI50: 3650 nM
  TGI: > 1000 nM
[13]; [35]
  CC50: > 1000 nM
[14]
  GI50: 1000 nM
  TGI: > 1000 nM
[14]; [35]
  CC50: > 1000 nM
[15]
  GI50: 1000 nM
  TGI: > 1000 nM
[15]; [35]
  CC50: > 1000 nM
[16]
  GI50: 1000 nM
  TGI: > 1000 nM
[16]; [35]
  CC50: > 1000 nM
[17]
  GI50: 7200 nM
  TGI: > 1000 nM
[17]; [35]
  CC50: > 1000 nM
[18]
  GI50: 1000 nM
  TGI: > 1000 nM
[18]; [35]
  CC50: > 1000 nM
[19]
  inhibition of growth at 10 µM: 70.5%
[20]
  inhibition of growth at 10 µM: 16.1%
[21]
  inhibition of growth at 10 µM: 2.85%
[22]
  inhibition of growth at 10 µM: -10.2%
[23]
  inhibition of growth at 10 µM: 25.6%
[24]
  inhibition of growth at 10 µM: 65.6%
[25]
  inhibition of growth at 10 µM: 31.8%
[26]
  inhibition of growth at 10 µM: 38%
[27]
  inhibition of growth at 10 µM: 71%
[28]
  inhibition of growth at 10 µM: 44%
[29]
  inhibition of growth at 10 µM: 0.92%
[30]
  inhibition of growth at 10 µM: 64.9%
[31]
  Activity: 5.23%
[32]
  Activity: 0.63%
[33]
  Activity: 0.9%
[34]
  Activity: 0.36%
